Source: BindingDB's records for doi:10.1021/acs.jmedchem.1c01951 (University of South Carolina, 2022)

Biological target: T1, Myosin-IIIb (Homo sapiens, UniProt Q8WXR4)
T1 sequence (Q8WXR4 whole entry): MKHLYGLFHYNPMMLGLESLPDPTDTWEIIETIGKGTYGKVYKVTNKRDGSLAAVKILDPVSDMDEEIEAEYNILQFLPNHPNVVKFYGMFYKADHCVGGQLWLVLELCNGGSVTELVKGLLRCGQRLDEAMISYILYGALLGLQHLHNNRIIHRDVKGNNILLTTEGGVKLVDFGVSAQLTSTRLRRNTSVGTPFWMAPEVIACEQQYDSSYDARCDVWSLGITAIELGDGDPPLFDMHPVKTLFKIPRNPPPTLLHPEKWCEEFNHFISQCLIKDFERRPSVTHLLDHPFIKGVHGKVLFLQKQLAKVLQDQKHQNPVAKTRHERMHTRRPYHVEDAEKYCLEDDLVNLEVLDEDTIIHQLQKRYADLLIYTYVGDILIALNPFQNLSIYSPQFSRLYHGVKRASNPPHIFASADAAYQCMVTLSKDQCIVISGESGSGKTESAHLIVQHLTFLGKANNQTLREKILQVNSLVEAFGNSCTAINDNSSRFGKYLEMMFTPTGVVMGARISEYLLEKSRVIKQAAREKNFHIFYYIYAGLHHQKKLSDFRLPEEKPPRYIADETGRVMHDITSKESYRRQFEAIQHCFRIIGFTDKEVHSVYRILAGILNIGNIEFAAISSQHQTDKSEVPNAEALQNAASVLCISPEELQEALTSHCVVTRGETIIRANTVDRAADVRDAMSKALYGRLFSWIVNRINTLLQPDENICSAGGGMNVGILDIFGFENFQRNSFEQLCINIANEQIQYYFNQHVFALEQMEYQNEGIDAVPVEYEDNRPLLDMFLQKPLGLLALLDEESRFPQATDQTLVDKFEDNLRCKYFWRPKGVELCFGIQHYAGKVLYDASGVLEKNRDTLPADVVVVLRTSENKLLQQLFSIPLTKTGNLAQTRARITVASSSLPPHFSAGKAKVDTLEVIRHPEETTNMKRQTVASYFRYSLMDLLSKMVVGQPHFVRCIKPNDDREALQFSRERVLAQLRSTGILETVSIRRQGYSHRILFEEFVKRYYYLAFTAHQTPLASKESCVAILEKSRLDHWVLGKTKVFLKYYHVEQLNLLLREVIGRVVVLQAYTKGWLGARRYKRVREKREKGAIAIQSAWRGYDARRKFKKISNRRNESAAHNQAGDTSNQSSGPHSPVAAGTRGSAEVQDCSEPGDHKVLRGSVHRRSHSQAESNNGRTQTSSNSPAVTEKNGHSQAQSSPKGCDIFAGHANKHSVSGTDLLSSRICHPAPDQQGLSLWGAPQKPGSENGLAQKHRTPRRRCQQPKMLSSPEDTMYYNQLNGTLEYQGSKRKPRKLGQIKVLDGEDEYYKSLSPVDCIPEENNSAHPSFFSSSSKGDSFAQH
Experiment: Binding affinity to human MYO3B assessed as dissociation constant by KdELECT Discover assay

Kd: > 30 µM
Structure (SMILES): CN1CCN(C(=O)c2ccc3cc(CCNc4ccnc5ccc(C#N)cc45)ccc3c2)CC1
